pKd: −log10 of the molar value.
Legend:
Assay type in all cases: binding
[1] = molecular target: HDAC1 (Homo sapiens (Human), UniProt Q13547); assay: Reporter displacement assay (HDAC1); details: for pKd: reporter probe displacement, Cheng Prusoff
Procedure: [The procedure below names another target; the source lists this target under the same test.] (§1) HDAC2 containing a C-terminal HIS-Tag (Proteros) and fluorescently-labeled anti-HIS-antibody are diluted in one vial in assay buffer 50 mM Tris, pH 8.0, 1 mM DTT, 150 mM NaCl, and 0.01% Tween20. Components are pre-incubated for 30 min, then a small volume of reporter probe (Proteros) is added from a highly concentrated stock and incubation is continued for another 30 min.
(§2) Ten μl/well of pre-formed complex are transferred into 384 well assay plates (Corning). Compounds to be profiled are serially diluted from […] in DMSO and 60 nl are added to assay plates by pintool transfer (CybiWell, Cybio).
For Kd determination, percent probe displacement values are calculated for each compound concentration and plotted against the compound concentration. […] Since the reporter probe is used at a concentration reflecting its own Kd value, compound Kd values can be calculated according to the Cheng Prusoff equation.

[2] = molecular target: T1, HDAC2 (Homo sapiens (Human), UniProt Q92769); assay: Reporter displacement assay (HDAC2); details: reporter probe displacement, Cheng Prusoff
T1 sequence (Q92769 whole entry): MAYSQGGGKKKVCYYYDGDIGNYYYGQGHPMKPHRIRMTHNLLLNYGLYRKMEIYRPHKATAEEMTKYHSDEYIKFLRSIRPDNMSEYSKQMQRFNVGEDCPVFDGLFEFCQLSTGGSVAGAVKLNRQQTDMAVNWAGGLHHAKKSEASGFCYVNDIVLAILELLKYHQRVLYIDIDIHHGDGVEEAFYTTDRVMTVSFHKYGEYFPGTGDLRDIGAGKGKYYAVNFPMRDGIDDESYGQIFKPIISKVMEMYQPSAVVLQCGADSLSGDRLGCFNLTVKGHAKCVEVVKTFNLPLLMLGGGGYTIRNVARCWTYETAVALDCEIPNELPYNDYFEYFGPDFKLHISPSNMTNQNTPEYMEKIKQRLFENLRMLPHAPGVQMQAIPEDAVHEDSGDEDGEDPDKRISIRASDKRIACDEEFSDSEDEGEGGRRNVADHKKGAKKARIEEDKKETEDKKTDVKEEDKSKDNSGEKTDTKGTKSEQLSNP
Procedure: as §1, with “min. Final concentrations after adding the reporter probe amount to 20 nM HDAC2, 4 nM antibody, and 180 nM probe.” for “min.”
as §2, with “Cybio). Fluorescence intensity signal is read after 4 h in a Pherastar FS (BMG Labtech) at 337/665 nm.” for “Cybio).”
For Kd determination, percent probe displacement values are calculated for each compound concentration and plotted against the compound concentration. IC50-like values (corresponding to 50% probe displacement) are calculated using standard fitting algorithms. Since the reporter probe is used at a concentration reflecting its own Kd value, compound Kd values can be calculated according to the Cheng Prusoff equation.
In the table, “A” indicates a Kd value of less than 0.1 μM; “B” a Kd value of between 0.1 μM and 0.5 μM; “C” a Kd value of greater than 0.5 μM and less than or equal to 5.0 μM; and “D” a Kd value of greater than 5.0 μM.

[3] = molecular target: T1, HDAC2; assay: Reporter displacement assay (HDAC2)

HDAC1, sequence (Q13547 whole entry): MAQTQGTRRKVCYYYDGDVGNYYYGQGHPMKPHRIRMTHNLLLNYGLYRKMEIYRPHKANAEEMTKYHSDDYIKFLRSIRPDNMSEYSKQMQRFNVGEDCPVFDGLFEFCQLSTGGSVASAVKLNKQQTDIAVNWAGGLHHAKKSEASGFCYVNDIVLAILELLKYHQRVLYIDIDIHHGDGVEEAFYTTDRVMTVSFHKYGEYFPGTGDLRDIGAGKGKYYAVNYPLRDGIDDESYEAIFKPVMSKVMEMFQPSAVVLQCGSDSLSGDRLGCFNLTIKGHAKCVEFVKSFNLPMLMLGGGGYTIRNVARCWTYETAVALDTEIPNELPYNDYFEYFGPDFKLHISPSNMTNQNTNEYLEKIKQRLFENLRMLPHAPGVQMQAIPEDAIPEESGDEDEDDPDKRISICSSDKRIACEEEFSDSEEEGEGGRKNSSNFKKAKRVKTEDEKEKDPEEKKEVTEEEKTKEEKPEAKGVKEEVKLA

residence time [1] [min]	pKd [1]	pKd [2]	residence time [3] [min]	SMILES
–	< 5.30	< 5.30	–	CC(C)(C)OC(=O)N1CC2CC1CN2C(=O)Nc1cc(-c2ccncc2)ccc1N (stereo not drawn) [Compound 104]
–	< 5.30	< 5.30	–	CC(=O)N1CC2CC1CN2C(=O)Nc1cc(-c2ccncc2)ccc1N (stereo not drawn) [Compound 108]
1550	> 7.00	6.30 to 7.00	2360	CNC(=O)N1CC2CN(C(=O)Nc3cc(-c4ccc(F)cc4)ccc3N)CC2C1 (stereo not drawn) [Compound 120]
587	6.30 to 7.00	5.30 to 6.30	869	NCC(=O)N1CC2CN(C(=O)Nc3cc(-c4ccc(F)cc4)ccc3N)CC2C1 (stereo not drawn) [Compound 121]
584	6.30 to 7.00	6.30 to 7.00	1790	CC(C)(C)OC(=O)N1CC2CN(C(=O)Nc3cc(-c4ccc(F)cc4)ccc3N)CC2C1 (stereo not drawn) [Compound 124]
1520	> 7.00	6.30 to 7.00	2540	Nc1ccc(-c2ccc(F)cc2)cc1NC(=O)N1CCC2(CC1)COC2 [Compound 127]
1730	> 7.00	6.30 to 7.00	1500	N#CC1CCc2nc(C(=O)Nc3cc(-c4ccc(F)cc4)ccc3N)cn2C1 (stereo not drawn) [Compound 128]
724	> 7.00	6.30 to 7.00	1700	Nc1ccc(-c2ccncc2)cc1NC(=O)N1CC2CN(C3COC3)CC2C1 (stereo not drawn) [Compound 129]
695	6.30 to 7.00	6.30 to 7.00	1200	Nc1ccc(-c2ccc(F)c(F)c2)cc1NC(=O)c1cn2c(n1)CNCC2 [Compound 131]
1300	> 7.00	6.30 to 7.00	1460	Nc1ccc(-c2ccc(F)cc2F)cc1NC(=O)N1Cc2ccncc2C1 [Compound 133]
192	6.30 to 7.00	6.30 to 7.00	790	Nc1ccc(-c2cccnc2)cc1NC(=O)N1Cc2ccncc2C1 [Compound 134]
941	> 7.00	6.30 to 7.00	1540	COCCN1CCC2(CCN(C(=O)Nc3cc(-c4ccncc4)ccc3N)CC2)C1 [Compound 136]
724	6.30 to 7.00	6.30 to 7.00	2370	COCCN1CCC2(CCN(C(=O)Nc3cc(-c4ccc(F)cc4)ccc3N)CC2)C1 [Compound 138]
1350	< 5.30	< 5.30	–	Cc1cc(F)ccc1-c1ccc(N)c(NC(=O)N2Cc3ccncc3C2)c1 [Compound 141]
982	5.30 to 6.30	5.30 to 6.30	1010	Nc1ccc(-c2cc(F)c(F)c(F)c2)cc1NC(=O)N1Cc2ccncc2C1 [Compound 142]
1200	> 7.00	6.30 to 7.00	1490	Nc1ccc(-c2ccc(F)cc2)cc1NC(=O)N1CCC2(CCN(CCF)C2)CC1 [Compound 143]
296	5.30 to 6.30	5.30 to 6.30	1490	Nc1ccc(-c2ccncc2)cc1NC(=O)N1CCC2(CCN(CCF)C2)CC1 [Compound 144]
–	6.30 to 7.00	5.30 to 6.30	–	Nc1ccc(-c2ccc(F)c(Cl)c2)cc1NC(=O)N1Cc2ccncc2C1 [Compound 163]

The next lines start with the compound.

SMILES	residence time [1] [min]	pKd [1]	pKd [2]	residence time [3] [min]
Nc1ccc(-c2ccncc2)cc1NC(=O)N1Cc2cncnc2C1 [Compound 100]	470	6.30 to 7.00	–	–
Nc1ccc(-c2ccncc2)cc1NC(=O)N1Cc2nccnc2C1 [Compound 101]	906	> 7.00	6.30 to 7.00	1930
Nc1ccc(-c2ccncc2)cc1NC(=O)N1Cc2ccncc2C1 [Compound 102]	1240	> 7.00	6.30 to 7.00	1410
Nc1ccc(-c2ccncn2)cc1NC(=O)N1Cc2ccncc2C1 [Compound 103]	330	5.30 to 6.30	5.30 to 6.30	1960
Nc1ccc(-c2ccncc2)cc1NC(=O)N1CC2CCC(C1)O2 [Compound 105]	–	< 5.30	< 5.30	–
CC(C)(C)OC(=O)N1C2CCC1CN(C(=O)Nc1cc(-c3ccncc3)ccc1N)C2 [Compound 106]	–	< 5.30	< 5.30	–
CC(=O)N1C2CCC1CN(C(=O)Nc1cc(-c3ccncc3)ccc1N)C2 [Compound 107]	–	< 5.30	< 5.30	–
CC(=O)N1C2CCC1CN(C(=O)Nc1cc(-c3ccncc3)ccc1N)C2 [Compound 109]	–	< 5.30	< 5.30	–
CC(C)(C)OC(=O)N1C2CCC1CN(C(=O)Nc1cc(-c3ccncc3)ccc1N)C2 [Compound 110]	–	< 5.30	< 5.30	–
Nc1ccc(-c2ccc(F)cc2)cc1NC(=O)N1CC2CCC(C1)O2 [Compound 111]	34	< 5.30	< 5.30	61
CC(C)(C)OC(=O)N1C2CCC1CN(C(=O)Nc1cc(-c3ccc(F)cc3)ccc1N)C2 [Compound 112]	9	< 5.30	< 5.30	38
Nc1ccc(-c2ccc(F)cc2)cc1NC(=O)N1CC2CCC(C1)N2 [Compound 113]	–	< 5.30	< 5.30	–
Nc1ccc(-c2ccc(F)cc2)cc1NC(=O)N1CC2CNCC2C1 (stereo not drawn) [Compound 114]	127	< 5.30	5.30 to 6.30	1470
CN1CC2CN(C(=O)Nc3cc(-c4ccncc4)ccc3N)CC2C1=O (stereo not drawn) [Compound 115]	98	5.30 to 6.30	5.30 to 6.30	–
CC(=O)N1C2CCC1CN(C(=O)Nc1cc(-c3ccc(F)cc3)ccc1N)C2 [Compound 116]	16	< 5.30	< 5.30	30
Nc1ccc(-c2ccc(F)cc2)cc1NC(=O)N1CC2CCC(C1)N2C=O [Compound 117]	29	< 5.30	5.30 to 6.30	36
Nc1ccc(-c2ccc(F)cc2)cc1NC(=O)N1CCC2(CCNC2)CC1 [Compound 118]	1180	> 7.00	6.30 to 7.00	636
Nc1ccc(-c2ccc(F)cc2)cc1NC(=O)N1Cc2nccnc2C1 [Compound 119]	1500	6.30 to 7.00	6.30 to 7.00	2150
Nc1ccc(-c2ccc(F)cc2)cc1NC(=O)c1cn2c(n1)CNCC2 [Compound 122]	1480	> 7.00	6.30 to 7.00	1950
Nc1ccc(-c2ccncc2)cc1NC(=O)c1cn2c(n1)CNCC2 [Compound 123]	1050	6.30 to 7.00	6.30 to 7.00	1610
Nc1ccc(-c2ccc(F)cc2)cc1NC(=O)N1CC2CN(C(=O)C3CC3)CC2C1 (stereo not drawn) [Compound 125]	788	> 7.00	6.30 to 7.00	1410
Nc1ccc(-c2ccc(F)cc2)cc1NC(=O)N1CC2CN(C3COC3)CC2C1 (stereo not drawn) [Compound 126]	937	> 7.00	6.30 to 7.00	2620
Nc1ccc(-c2ccc(Cl)cc2)cc1NC(=O)N1Cc2ccncc2C1 [Compound 130]	1080	> 7.00	6.30 to 7.00	1300
Nc1ccc(-c2ccc(C(F)(F)F)cc2F)cc1NC(=O)N1Cc2ccncc2C1 [Compound 132]	47	5.30 to 6.30	5.30 to 6.30	111
Nc1ccc(-c2ccc(F)c(F)c2)cc1NC(=O)N1Cc2ccncc2C1 [Compound 135]	353	6.30 to 7.00	6.30 to 7.00	1210
Nc1ccc(-c2ccc(F)c(F)c2)cc1NC(=O)N1Cc2nccnc2C1 [Compound 137]	552	6.30 to 7.00	6.30 to 7.00	1380
COc1ccc(-c2ccc(N)c(NC(=O)N3Cc4ccncc4C3)c2)cc1 [Compound 139]	1450	> 7.00	> 7.00	2260
Nc1ccc(-c2ccc(C(F)(F)F)cc2)cc1NC(=O)N1Cc2ccncc2C1 [Compound 140]	34	5.30 to 6.30	5.30 to 6.30	341

Source: patent US10421756B2, “Heterobicyclic N-aminophenyl-amides as inhibitors of histone deacetylase” (Rodin Therapeutics, Inc., priority 2015, dated 2019)
